Measurements: patent publication US11213033B2, “Method for reusing leaves from arborescent woody plants, for the phytopharmaceutical industry” (CENTRE NATIONAL DE LA RECHERCHE SCIENTIFIQUE—CNRS, priority 2014, dated 2022)

What was measured:
[1] = tested on: Phytophthora parasitica var. nicotianae (Ppn) isolate 329; assay: Curative treatment of tobacco leaf discs against a pathogen: surface area of region of infection; format: in vivo; details: 50 μl composition (1% extract), 100 μl zoospore suspension, three days after the infiltrations
Procedure: Identical compositions are used, as well as leaves originating from the same tobacco plants as in Example 2. Two discs ([…]) are cut from a single leaf and then placed in a Petri dish containing a layer of 2% agarose gel.
The pathogen selected for the study is Phytophthora parasitica var. nicotianae (Ppn) isolate 329. The Ppn is grown on Malt Agar at 24° C. For the production of zoospores, the Ppn mycelium is grown for a week in V8 liquid medium at 24° C. under continuous light conditions, macerated, and then incubated for four days in water containing 2% agar. The zoospores are released by means of thermal shock consisting of two incubations, a first at 4° C. for 20 min, a second at 37° C. for 30 min after addition of 10 ml water. A zoospore suspension in water (1 zoospore per microliter) is prepared before being inoculated.
The compositions containing the extracts (50 μl) are infiltrated and the zoospore suspensions (100 μl) are inoculated into two separate regions, 1 cm apart, of the tobacco leaf parenchyma. Assays in which the compositions are replaced with salicylic acid (positive control) or ultrapure water (negative control) are performed. Three days after the infiltrations, the surface area of the region of infection is measured. The measurements are made using the Optima and Photoshop software for Windows.

[2] = Sulcotrione photoprotection test (Suntest irradiation, HPLC); format: physicochemical
Procedure: The pesticide used is sulcotrione. It was used in its Mikado commercial formulation. Sulcotrione degrades when irradiated by sunlight. The speed of the photodegradation depends on the environment of the molecule. To be representative of actual usage conditions of the pesticide, the rate of sulcotrione photodegradation is measured with the latter being dry, deposited in crystallizing dishes where the bottom is covered by a film of paraffin wax simulating the thin layer of epicuticular wax covering the surface of plants.
The formulated sulcotrione is deposited alone or in the presence of the compositions, 1 ml per crystallizing dish. The concentration of sulcotrione is fixed at 8 mg/l (100 g/ha) and that of the extracts is adjusted so that the absorbance of the compositions at 300 nm is equal to 4 for a 1 mm path length. The pH of the two compositions is normalized to 4.5 by the addition of sodium hydroxide. The crystallizing dishes are then inserted into a Suntest irradiator delivering a radiation similar in photon distribution and intensity to sunlight when the sun is at zenith in temperate regions, then removed after 3 h and 6 h of irradiation. The crystallizing dishes are rinsed with 2 ml ultrapure water and these solutions are analyzed by HPLC to determine their sulcotrione content.

| SMILES | Surface area of region of infection [1] [cm^2] | sulcotrione disappearance after 3 hours of irradiation ([2]; Suntest, 3 h) [%] | sulcotrione disappearance (loss) after 6 hours of irradiation ([2]; Suntest, 6 h) | Sulcotrione content after 3 h irradiation ([2]; sulcotrione 8 mg/l, dry deposit on paraffin wax film, Suntest, 3 h) | Sulcotrione content after 6 h irradiation ([2]; sulcotrione 8 mg/l, dry deposit on paraffin wax film, Suntest, 6 h) | Initial sulcotrione content ([2]; sulcotrione 8 mg/l, dry deposit on paraffin wax film, before irradiation) |
| --- | --- | --- | --- | --- | --- | --- |
| O=C(O)c1ccccc1O [Salicylic acid, salicylic acid] | 10.9 ± 2.8 |  |  |  |  |  |
| CS(=O)(=O)c1ccc(C(=O)C2C(=O)CCCC2=O)c(Cl)c1 [Sulcotrione alone, sulcotrione] |  | 65 | about 75% | 135 000 U.A. | 91 000 U.A. | 390 000 U.A. |
